Measurements: publication PMC3757248, “Antiestrogen-binding site ligands induce autophagy in myeloma cells that proceeds through alteration of cholesterol metabolism” (Oncotarget, 2013)

How the values were obtained:
[1] = system: OPM-2; set-up: method as in earlier work; conditions: cited from earlier work
[2] = target: T1, ChEH (Homo sapiens, UniProt Q15125+Q9UBM7); experiment: ChEH activity measured on intact cells; type: cell-based; set-up: endogenous in cells; host or cells: LP-1 human multiple myeloma cell lines
T1 sequence (Q15125 whole entry): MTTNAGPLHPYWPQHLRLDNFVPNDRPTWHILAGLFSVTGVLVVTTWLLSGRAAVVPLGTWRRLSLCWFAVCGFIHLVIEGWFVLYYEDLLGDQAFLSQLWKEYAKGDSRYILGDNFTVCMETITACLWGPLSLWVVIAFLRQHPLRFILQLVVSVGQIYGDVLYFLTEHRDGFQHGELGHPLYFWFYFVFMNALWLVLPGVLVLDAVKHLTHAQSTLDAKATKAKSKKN
T1 sequence (Q9UBM7 whole entry): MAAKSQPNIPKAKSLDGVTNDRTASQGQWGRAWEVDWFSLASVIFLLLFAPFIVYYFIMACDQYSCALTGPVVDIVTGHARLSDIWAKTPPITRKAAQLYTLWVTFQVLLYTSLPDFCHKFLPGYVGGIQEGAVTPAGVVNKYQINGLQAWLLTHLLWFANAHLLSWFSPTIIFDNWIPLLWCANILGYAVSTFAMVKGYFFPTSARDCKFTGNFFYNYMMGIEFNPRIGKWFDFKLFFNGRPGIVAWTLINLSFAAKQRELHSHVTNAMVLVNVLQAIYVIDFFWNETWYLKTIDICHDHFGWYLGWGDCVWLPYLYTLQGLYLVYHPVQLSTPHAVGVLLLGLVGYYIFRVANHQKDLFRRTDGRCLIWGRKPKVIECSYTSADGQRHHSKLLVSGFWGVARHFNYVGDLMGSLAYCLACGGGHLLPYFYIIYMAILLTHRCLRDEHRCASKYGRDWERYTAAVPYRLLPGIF
Description: (§1) Cells were then pelleted and extracted with chloroform/methanol (2/1). The organic layer was reduced to dryness under a flux of argon and the residue was resuspended in EtOH. Samples were applied to thin layer chromatography (TLC) plates and developed using ethyl acetate as previously described. The radioactive metabolites were visualized by autoradiography using Kodak Biomax MS films.

[3] = target: T2, AEBS (Homo sapiens, UniProt Q15125+Q9UBM7); experiment: Binding to the AEBS in RPMI 8226
T2 sequence (Q15125 whole entry): as the sequence (Q15125 whole entry) above
T2 sequence (Q9UBM7 whole entry): as the sequence (Q9UBM7 whole entry) above

[4] = system: U266; set-up: method as in earlier work; conditions: cited from earlier work
[5] = system: LP-1 cells; experiment: Electron microscopy for MLBs, AVs and UVs; type: cell-based, human; conditions: 48 h, 10 μM drug (PBPE 40 μM)
[6] = system: RPMI 8226 cells; experiment: Electron microscopy for MLBs, AVs and UVs; type: cell-based, human; conditions: 48 h, 10 μM drug (PBPE 40 μM)
[7] = target: T1, ChEH; experiment: ChEH activity measured on intact cells; type: cell-based; set-up: endogenous in cells; host or cells: RPMI 8226 human multiple myeloma cell lines
Description: as §1

[8] = system: HMCLs; experiment: Free sterol accumulation in HMCLs; type: cell-based, human
Method: (§2) The organic layer was reduced to dryness under a flux of argon and the residue was resuspended in ethanol. Sterols were analyzed by liquid chromatography and gas-liquid chromatography as described before. Neutral lipids and sphingomyelin analyses were done according to previously published procedures.

[9] = system: LP-1; set-up: method as in earlier work; conditions: cited from earlier work
[10] = system: RPMI 8226; set-up: method as in earlier work; conditions: cited from earlier work
[11] = system: Karpas 620; set-up: method as in earlier work; conditions: cited from earlier work
[12] = target: T2, AEBS; experiment: Binding to the AEBS in LP1; set-up: endogenous in cells; host or cells: LP-1 human multiple myeloma cell lines
[13] = system: MM tumors; set-up: method as in PMID 20033476, PMID 16753295; conditions: xenografted mice bearing MM tumors; cited from earlier work
[14] = target: T1, ChEH; experiment: ChEH activity in HMCLs (TLC); type: cell-based; set-up: endogenous in cells; host or cells: RPMI 8226 and LP-1 human multiple myeloma cell lines; conditions: for ChEH activity, conversion of 5,6-EC into CT by TLC: OHT, Tam, RU 58668 10 μM, PBPE 40 μM
Description: as §1

[15] = target: T2, AEBS; experiment: Binding to the AEBS in HMCLs; set-up: endogenous in cells; host or cells: RPMI 8226 and LP-1 human multiple myeloma cell lines
[16] = system: NCI-H929; set-up: method as in earlier work; conditions: cited from earlier work
[17] = system: RPMI 8226 and LP-1 cells; experiment: Intracellular free sterol, TG and SM contents; type: cell-based, human; conditions: 5 µM OHT, 20 µM PBPE or 5 µM RU 58668 for three days
Method: as §2

[18] = system: RPMI 8226 and LP-1 cells; experiment: Cell viability, MTT assay; type: cell-based, human; conditions: 1 μM LY 294002, 10 nM everolimus, 10 μM RU 39411, 40 μM PBPE
Method: RPMI 8226 were obtained from R Bataille (CLCC, Nantes, France) and LP-1 cells from D Bouscary (Institut Cochin, Paris, France). At their arrival, the identity of cells was checked by karyotyping and surface markers expression; cells were then amplified and frozen. HMCLs were maintained in RPMI 1640 medium (Lonza, Basel, Switzerland) supplemented with 2 mM L-glutamine (Lonza) and 10% FCS (fetal calf serum) (PAA Laboratories, Velizy-Villacoublay, France). In experiments with AEs, cells were cultured in phenol red-free medium plus FCS. AEs were dissolved in ethanol (EtOH) to obtain 10 mM stock solution and then diluted into medium immediately before use. For controls, vehicle was added at the same final concentration. Cell viability was determined using CellTiter 96® AQueous One Solution (MTT [([3]-([4],[5])-dimethylthiazol-[2]-yl)-[2],[5]-diphenyltetrazolium bromide] assay, Promega, Charbonnières, France) according to the supplier's instructions.

[19] = system: RPMI 8226 cells; experiment: Presence of 5,6-EC in cells by GC/MS; type: cell-based, human; conditions: 48 h, 10 μM drug (PBPE 40 μM)
Method: as §2

[20] = system: LP-1 cells; experiment: Presence of 5,6-EC in cells by GC/MS; type: cell-based, human; conditions: 48 h, 10 μM drug (PBPE 40 μM)
Method: as §2

[21] = system: RPMI 8226 and LP-1 cells; experiment: Degradation of long-lived proteins; type: cell-based, human; conditions: both cell lines, 10 μM OHT, 40 μM PBPE
Method: The degradation of long-lived proteins was measured as described previously. Briefly, HMCLs were incubated for 24 h at 37°C with 0.2 μCi/ml of L-[[14]C]valine in complete medium. Cells were then washed resuspended in medium with no nutrients but supplemented with 10 mM valine. After the first h of incubation, the chase medium was replaced by complete medium and the incubation continued for 5 h. […] Radiolabeled proteins present in the chase medium as well as in cells were precipitated with 10% trichloroacetic acid (v/v) at 4°C. Radioactivity was measured by scintillation counting. The rate of protein degradation was calculated from the ratio of radioactivity in the medium to that of precipitated cell fraction.

[22] = system: RPMI 8226 cells; experiment: Sterols accumulated in cells, HPLC and GC/MS; type: cell-based, human; conditions: RPMI 8226, 48 h incubation
Method: as §2

[23] = system: LP-1 cells; experiment: Sterols accumulated in cells, HPLC and GC/MS; type: cell-based, human; conditions: LP1, 48 h incubation
Method: as §2

[24] = RPMI 8226, presence of 500 μM Vit E

SMILES | Ki [3] [nM] | AV ([5]; LP-1, absence of Vit E) | MLB ([5]; LP-1, absence of Vit E) | UV ([5]; LP-1, absence of Vit E) | AV ([5]; LP-1, presence of 500 μM Vit E) | MLB ([5]; LP-1, presence of 500 μM Vit E) | UV ([5]; LP-1, presence of 500 μM Vit E) | AV ([6]; RPMI 8226, absence of Vit E) | MLB ([6]; RPMI 8226, absence of Vit E) | UV ([6]; RPMI 8226, absence of Vit E) | AV [6, 24] | MLB [6, 24] | UV [6, 24] | free sterol accumulated [8] | Ki [12] [nM] | ChEH activity, conversion of 5,6-EC into CT by TLC [14] | affinity for the AEBS [15] | also measured
C[C@]12C[C@H](c3ccc(OCCCCCS(=O)(=O)CCCC(F)(F)C(F)(F)F)cc3)[C@@H]3c4ccc(O)cc4CC[C@H]3[C@@H]1CC[C@@H]2O [RU 58668, 17β-11-[4-[5-[([4],[4],[5],[5],[5]-pentafluoropentyl)-sulfonyl]-pentyloxy]-phenyl]estra-1,3,5(10)-triene,3,17-diol] | > 10000 | + + (The sign + means that 80 % cells were positive and contained at least 5 vesicles) | − − (otherwise they were considered as negative (-)) | − − (otherwise they were considered as negative (-)) | + + (The sign + means that 80 % cells were positive and contained at least 5 vesicles) | − − (otherwise they were considered as negative (-)) | − − (otherwise they were considered as negative (-)) | + + (The sign + means that 80 % cells were positive and contained at least 5 vesicles) | − − (otherwise they were considered as negative (-)) | − − (otherwise they were considered as negative (-)) | + + (The sign + means that 80 % cells were positive and contained at least 5 vesicles) | − − (otherwise they were considered as negative (-)) | − − (otherwise they were considered as negative (-)) | did not induce free sterol accumulation | > 10000 | CT accumulated | no measurable affinity | SERM and SERDs effects on MM cell lines [1]: G1-arrest; IC50 ([2]; LP-1 intact cells, [14C]-5,6-EC 0.6 μM, drugs 1 nM to 10 μM over 24 h, read-out: ChEH IC50): > 10000 nM; SERM and SERDs effects on MM cell lines [4]: No response; IC50 ([7]; RPMI 8226 intact cells, [14C]-5,6-EC 0.6 μM, drugs 1 nM to 10 μM over 24 h, read-out: ChEH IC50): > 10000 nM; SERM and SERDs effects on MM cell lines [9]: G1-arrest; SERM and SERDs effects on MM cell lines [10]: Apoptosis; SERM and SERDs effects on MM cell lines [11]: No response; tumor growth [13]: block tumor growth; IC50 ([14]; read-out: concentration up to which ChEH was not inhibited): > 10000 nM; SERM and SERDs effects on MM cell lines [16]: Apoptosis
Cl.c1ccc(Cc2ccc(OCCN3CCCC3)cc2)cc1 [PBPE, 1-(2-(4-benzylphenoxy)-ethyl)-pyrrolidin-HCl] | 4.2 ± 1.8 | + + (The sign + means that 80 % cells were positive and contained at least 5 vesicles) | + + (The sign + means that 80 % cells were positive and contained at least 5 vesicles) | + (The sign + means that 80 % cells were positive and contained at least 5 vesicles) | + + (The sign + means that 80 % cells were positive and contained at least 5 vesicles) | + + (The sign + means that 80 % cells were positive and contained at least 5 vesicles) | − (otherwise they were considered as negative (-)) | + + (The sign + means that 80 % cells were positive and contained at least 5 vesicles) | + + (The sign + means that 80 % cells were positive and contained at least 5 vesicles) | + (The sign + means that 80 % cells were positive and contained at least 5 vesicles) | + + (The sign + means that 80 % cells were positive and contained at least 5 vesicles) | + + (The sign + means that 80 % cells were positive and contained at least 5 vesicles) | − (otherwise they were considered as negative (-)) | accumulation zymostenol | 3.2 ± 2.2 | ChEH activity was inhibited | high affinity | IC50 [2]: 884 ± 32 nM; intracellular free sterol, triacylglycerol (TG) and sphingomyelin (SM) contents [17]: increases; cell death (viable cells, MTT assay) [18]: cell death that was strictly caspase-independent; IC50 [7]: 927 ± 24 nM; 5,6-EC ([19]; RPMI 8226, absence of Vit E): +; 5,6-EC [19, 24]: −; 5,6-EC ([20]; LP-1, absence of Vit E): +; 5,6-EC ([20]; LP-1, presence of 500 μM Vit E): −; rate of long-lived protein degradation [21]: stimulated; Desmosterol [22]: 1.4 percent by the weight of total sterol; Zymostenol [22]: 28.7 percent by the weight of total sterol; Desmosterol [23]: 1.2 percent by the weight of total sterol; Zymostenol [23]: 31.1 percent by the weight of total sterol
